Source: US12180187B2, “1-phenyl-5-azinylpyrazolyl-3-oxyalkyl acids and their use for controlling unwanted plant growth” (BAYER AKTIENGESELLSCHAFT, priority 2019, dated 2024)

What was measured:
[1] = test system: ECHCG; assay: Post-emergence action at 320 g/ha against ECHCG; format: in vivo, Echinochloa crus-galli; settings: dosage 320 g/ha, visual rating about 3 weeks after treatment vs untreated controls (100% = plants died)
Procedure, shortened: (§1)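 Herbicidal effect is scored by eye about 3 weeks after a foliar spray and expressed as percent activity, with untreated plants as 0% and dead plants as 100%. Treatment is applied at the one-leaf stage of greenhouse-grown, soil-sown plants, at a water rate of 600 l/ha containing 0.5% additive.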

[2] = test system: AVEFA; assay: Pre-emergence action at 320 g/ha against AVEFA; format: in vivo; settings: visual scoring after about 3 weeks vs untreated controls; for pest or weed control at 320 g/ha: Avena fatua, 504 h
Procedure, shortened: (§2)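 WP/EC formulations applied pre-emergence to covering soil, water rate 600 l/ha, 0.5% additive. Greenhouse, ~3 weeks. Visual % damage vs untreated (0–100%).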

[3] = test system: AMARE; assay: Post-emergence action against AMARE, 1.28 kg/ha; format: in vivo, Amaranthus retroflexus; settings: dosage 1280 g/ha, visual rating about 3 weeks after treatment vs untreated controls (100% = plants died)
Procedure, shortened: (§3)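 Activity scored visually roughly 3 weeks after treatment against untreated plants (0% = as control, 100% = dead). Plants grown in sandy loam in greenhouse, treated at one-leaf stage, 2–3 weeks post-sowing, with WP/EC spray containing 0.5% additive at 600 l/ha.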

[4] = test system: DIGSA; assay: Post-emergence action against DIGSA, 1.28 kg/ha; format: in vivo, Digitaria sanguinalis; settings: dosage 1280 g/ha, visual rating about 3 weeks after treatment vs untreated controls
Procedure, shortened: as §3

[5] = test system: LOLRI; assay: Pre-emergence action at 320 g/ha against LOLRI; format: in vivo, Lolium rigidum; settings: visual scoring after about 3 weeks vs untreated controls; for pest or weed control at 320 g/ha: Lolium rigidum, 504 h
Procedure, shortened: as §2

[6] = test system: VERPE; assay: Pre-emergence action at 320 g/ha against VERPE; format: in vivo, Veronica persica; settings: visual scoring after about 3 weeks vs untreated controls; for pest or weed control at 320 g/ha: Veronica persica, 504 h
Procedure, shortened: as §2

[7] = test system: DIGSA; assay: Post-emergence action at 320 g/ha against DIGSA; format: in vivo, Digitaria sanguinalis; settings: dosage 320 g/ha, visual rating about 3 weeks after treatment vs untreated controls (100% = plants died); for pest or weed control at 320 g/ha: Digitaria sanguinalis, 504 h
Procedure, shortened: as §1

[8] = test system: AVEFA; assay: Post-emergence action at 320 g/ha against AVEFA; format: in vivo; settings: visual rating about 3 weeks after treatment vs untreated controls; for pest or weed control at 320 g/ha: Avena fatua, 504 h
Procedure, shortened: as §1

[9] = test system: VIOTR; assay: Pre-emergence action at 320 g/ha against VIOTR; format: in vivo, Viola tricolor; settings: dosage 320 g/ha; for pest or weed control at 320 g/ha: Viola tricolor, 504 h
Procedure, shortened: as §2

[10] = test system: VERPE; assay: Post-emergence action against VERPE, 1.28 kg/ha; format: in vivo, Veronica persica; settings: dosage 1280 g/ha, visual rating about 3 weeks after treatment vs untreated controls (100% = plants died); for pest or weed control at 1280 g/ha: Veronica persica, 504 h
Procedure, shortened: as §3

[11] = test system: VIOTR; assay: Post-emergence action at 320 g/ha against VIOTR; format: in vivo, Viola tricolor; settings: visual rating about 3 weeks after treatment vs untreated controls; for pest or weed control at 320 g/ha: Viola tricolor, 504 h
Procedure, shortened: as §1

[12] = test system: LOLRI; assay: Pre-emergence action against LOLRI, 1280 g/ha; format: in vivo, Lolium rigidum; settings: visual scoring after about 3 weeks vs untreated controls, 100% = plants have died, 0% = like control plants; for pest or weed control at 1280 g/ha: Lolium rigidum, 504 h
Procedure, shortened: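 Weed seeds sown in sandy loam in pots, covered with soil; compound as WP or EC applied to soil surface as aqueous suspension/emulsion with 0.5% additive at 600 L/ha water. Greenhouse, good growth conditions; visual % damage vs untreated controls after about 3 weeks (100% = plants dead, 0% = like control).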

[13] = test system: ECHGC; assay: Pre-emergence action at 320 g/ha against ECHGC; format: in vivo, Echinochloa crus-galli; settings: visual scoring after about 3 weeks vs untreated controls
Procedure, shortened: as §2

[14] = test system: SETVI; assay: Post-emergence action against SETVI, 1.28 kg/ha; format: in vivo, Setaria viridis; settings: dosage 1280 g/ha, visual rating about 3 weeks after treatment vs untreated controls
Procedure, shortened: as §3

[15] = test system: ALOMY; assay: Post-emergence action against ALOMY, 1.28 kg/ha; format: in vivo, Alopecurus myosuroides; settings: dosage 1280 g/ha, visual rating about 3 weeks after treatment vs untreated controls
Procedure, shortened: as §3

[16] = test system: LOLRI; assay: Post-emergence action against LOLRI, 1.28 kg/ha; format: in vivo, Lolium rigidum; settings: dosage 1280 g/ha, visual rating about 3 weeks after treatment vs untreated controls
Procedure, shortened: as §3

## CS(=O)(=O)NC(=O)COc1nn(-c2ccccc2F)c(-c2ccc(F)nc2)c1Br [Example X-004]
[1]
  Post-emergence action at 320 g/ha against ECHCG in %: 90%
[2]
  Pre-emergence action against AVEFA in %: 90%
[3]
  Post-emergence action against AMARE: 100%
[4]
  Post-emergence action against DIGSA: 100%
[5]
  Pre-emergence action against LOLRI in %: 100%
[6]
  Pre-emergence action against VERPE in %: 100%
[7]
  Post-emergence action at 320 g/ha against DIGSA in %: 90%
[8]
  Post-emergence action against AVEFA in %: 90%
[9]
  Pre-emergence action against VIOTR in %: 100%
[10]
  Post-emergence action against VERPE: 100%
[11]
  Post-emergence action against VIOTR in %: 80%
[12]
  Pre-emergence action against LOLRI: 100%
[13]
  Pre-emergence action against ECHGC in %: 90%
[14]
  Post-emergence action against SETVI: 90%
[15]
  Post-emergence action against ALOMY: 100%

## COC(=O)C(C)Oc1nn(-c2ccccc2)c(-c2ccc(F)nc2)c1Br (centres unmarked) [VII-014]
[1]
  Post-emergence action at 320 g/ha against ECHCG in %: 80%
[2]
  Pre-emergence action against AVEFA in %: 90%
[3]
  Post-emergence action against AMARE: 90%
[5]
  Pre-emergence action against LOLRI in %: 100%
[6]
  Pre-emergence action against VERPE in %: 100%
[7]
  Post-emergence action at 320 g/ha against DIGSA in %: 80%
[8]
  Post-emergence action against AVEFA in %: 90%
[9]
  Pre-emergence action against VIOTR in %: 100%
[10]
  Post-emergence action against VERPE: 90%
[11]
  Post-emergence action against VIOTR in %: 90%
[12]
  Pre-emergence action against LOLRI: 100%
[13]
  Pre-emergence action against ECHGC in %: 80%
[16]
  Post-emergence action against LOLRI: 90%
[15]
  Post-emergence action against ALOMY: 100%

## COC(=O)C(C)Oc1nn(-c2ccccc2)c(-c2ccc(F)nc2)c1Cl (centres unmarked) [VII-023, Methyl 2-{[4-chloro-5-(6-fluoropyridin-3-yl)-1-phenyl-1H-pyrazol-3-yl]oxy}propanoate]
[1]
  Post-emergence action at 320 g/ha against ECHCG in %: 80%
[2]
  pest or weed control at 320 g/ha: 90%
[4]
  Post-emergence action against DIGSA: 90%
[5]
  pest or weed control at 320 g/ha: 100%
[6]
  pest or weed control at 320 g/ha: 80%
[7]
  pest or weed control at 320 g/ha: 90%
[8]
  pest or weed control at 320 g/ha: 80%
[9]
  pest or weed control at 320 g/ha: 100%
[10]
  pest or weed control at 1280 g/ha: 100%
[11]
  pest or weed control at 320 g/ha: 80%
[12]
  pest or weed control at 1280 g/ha: 100%
[13]
  Pre-emergence action against ECHGC in %: 90%
[16]
  Post-emergence action against LOLRI: 100%

## O=C(O)COc1nn(-c2ccccc2F)c(-c2cncc(F)c2)c1Br [VII-025]
[1]
  Post-emergence action at 320 g/ha against ECHCG in %: 90%
[2]
  Pre-emergence action against AVEFA in %: 80%
[3]
  Post-emergence action against AMARE: 90%
[4]
  Post-emergence action against DIGSA: 100%
[5]
  Pre-emergence action against LOLRI in %: 90%
[6]
  Pre-emergence action against VERPE in %: 100%
[7]
  Post-emergence action at 320 g/ha against DIGSA in %: 100%
[8]
  Post-emergence action against AVEFA in %: 90%
[9]
  Pre-emergence action against VIOTR in %: 100%
[10]
  Post-emergence action against VERPE: 100%
[11]
  Post-emergence action against VIOTR in %: 90%
[12]
  Pre-emergence action against LOLRI: 100%
[13]
  Pre-emergence action against ECHGC in %: 100%
[14]
  Post-emergence action against SETVI: 90%
[15]
  Post-emergence action against ALOMY: 100%

## CCOC(=O)COc1nn(-c2ccccc2F)c(-c2ccc(F)nc2)c1I [VII-036]
[1]
  Post-emergence action at 320 g/ha against ECHCG in %: 80%
[3]
  Post-emergence action against AMARE: 100%
[4]
  Post-emergence action against DIGSA: 100%
[6]
  Pre-emergence action against VERPE in %: 100%
[7]
  Post-emergence action at 320 g/ha against DIGSA in %: 90%
[8]
  Post-emergence action against AVEFA in %: 80%
[9]
  Pre-emergence action against VIOTR in %: 100%
[10]
  Post-emergence action against VERPE: 100%
[11]
  Post-emergence action against VIOTR in %: 80%
[12]
  Pre-emergence action against LOLRI: 100%
[13]
  Pre-emergence action against ECHGC in %: 90%
[16]
  Post-emergence action against LOLRI: 100%
[14]
  Post-emergence action against SETVI: 90%
[15]
  Post-emergence action against ALOMY: 100%

## COC(=O)[C@@H](C)Oc1nn(-c2cc(F)ccc2F)c(-c2cncc(F)c2)c1Br [VII-132]
[1]
  Post-emergence action at 320 g/ha against ECHCG in %: 80%
[2]
  Pre-emergence action against AVEFA in %: 100%
[3]
  Post-emergence action against AMARE: 100%
[4]
  Post-emergence action against DIGSA: 100%
[5]
  Pre-emergence action against LOLRI in %: 100%
[6]
  Pre-emergence action against VERPE in %: 100%
[7]
  Post-emergence action at 320 g/ha against DIGSA in %: 90%
[8]
  Post-emergence action against AVEFA in %: 80%
[9]
  Pre-emergence action against VIOTR in %: 100%
[10]
  Post-emergence action against VERPE: 90%
[11]
  Post-emergence action against VIOTR in %: 80%
[12]
  Pre-emergence action against LOLRI: 100%
[13]
  Pre-emergence action against ECHGC in %: 90%
[14]
  Post-emergence action against SETVI: 90%
[15]
  Post-emergence action against ALOMY: 100%

## CCOC(=O)COc1nn(-c2ccccc2F)c(-c2ccnc(F)c2)c1Br [VIII-003, Ethyl {[4-bromo-1-(2-fluorophenyl)-5-(2-fluoropyridin-4-yl)-1H-pyrazol-3-yl]oxy}acetate]
[1]
  Post-emergence action at 320 g/ha against ECHCG in %: 80%
[2]
  pest or weed control at 320 g/ha: 90%
[3]
  Post-emergence action against AMARE: 90%
[5]
  pest or weed control at 320 g/ha: 90%
[6]
  pest or weed control at 320 g/ha: 90%
[7]
  pest or weed control at 320 g/ha: 80%
[8]
  pest or weed control at 320 g/ha: 90%
[9]
  pest or weed control at 320 g/ha: 100%
[10]
  pest or weed control at 1280 g/ha: 90%
[11]
  pest or weed control at 320 g/ha: 80%
[12]
  pest or weed control at 1280 g/ha: 90%
[13]
  Pre-emergence action against ECHGC in %: 90%
[16]
  Post-emergence action against LOLRI: 100%
[14]
  Post-emergence action against SETVI: 100%

## O=C(O)COc1nn(-c2ccccc2F)c(-c2ccnc(F)c2)c1Br [VIII-004]
[1]
  Post-emergence action at 320 g/ha against ECHCG in %: 90%
[3]
  Post-emergence action against AMARE: 90%
[5]
  Pre-emergence action against LOLRI in %: 90%
[6]
  Pre-emergence action against VERPE in %: 100%
[7]
  Post-emergence action at 320 g/ha against DIGSA in %: 90%
[8]
  Post-emergence action against AVEFA in %: 100%
[9]
  Pre-emergence action against VIOTR in %: 90%
[10]
  Post-emergence action against VERPE: 90%
[11]
  Post-emergence action against VIOTR in %: 90%
[12]
  Pre-emergence action against LOLRI: 100%
[13]
  Pre-emergence action against ECHGC in %: 90%
[16]
  Post-emergence action against LOLRI: 100%
[14]
  Post-emergence action against SETVI: 100%
